Read-outs that look alike come from different tables or passages of the source.
Assays:
Plasmopara viticola = test: Plasmopara test (grapevines)/protective; assay type: in vivo; details: protective, 100 ppm of active ingredient, evaluated 6 days after inoculation
Procedure: To test for protective activity, young plants are sprayed with the preparation of active compound at the stated rate of application. After the spray coating has dried on, the plants are inoculated with an aqueous spore suspension of Plasmopara viticola and then remain for 1 day in an incubation cabinet at approximately 20° C. and a relative atmospheric humidity of 100%. The plant is subsequently placed for 4 days in a greenhouse at approximately 21° C. and a relative atmospheric humidity of approximately 90%. The plants are then misted and placed for 1 day in an incubation cabinet.

Phytophthora infestans = assay type: in vivo; details: tomato plants, preventive, 500 ppm of active ingredient, evaluated 7 days after inoculation
[1] = Measurement of logP values by HPLC on reversed phase columns (EEC directive 79/831 Annex V.A8); assay type: physicochemical

Row | SMILES | efficacy (Plasmopara viticola) [%] | efficacy (Phytophthora infestans) [%] | chromatographic logP ([1]; HPLC, pH 2.7, 0.1% formic acid, reported in preparation examples, read-out: logP(HCOOH)) | chromatographic logP ([1]; pH 2.7)
1 | CCCCCOC(=O)Nc1cccnc1CON=C(c1ccccc1)c1nnnn1C [Example 2, pentyl {2-[({[(1-methyl-1H-tetrazol-5-yl)(phenyl)methylene]amino}oxy)methyl]pyridin-3-yl}carbamate] | ≥ 70 | ≥ 70 | 3.53 | –
2 | Cn1nnnc1C(=NOCc1ncccc1N1C(=O)c2ccccc2C1=O)c1ccccc1 [Example 13, 2-{2-[({[(1-methyl-1H-tetrazol-5-yl)(phenyl)methylene]amino}oxy)methyl]pyridin-3-yl}-1H-isoindole-1,3(2H)-dione] | – | – | – | 2.63
3 | Cn1nnnc1C(=NOCc1ncccc1N)c1ccccc1 [Example 14, 2-[({[(1-methyl-1H-tetrazol-5-yl)(phenyl)methylene]amino}oxy)methyl]pyridin-3-amine] | – | – | – | 1.01

— patent US20110021572A1, “FUNGICIDE HYDROXIMOYL-TETRAZOLE DERIVATIVES” (priority 2008, published 2011)
